Reference: PubChem BioAssay AID2060912 (Molecular Pharmacology Branch, DTP, NCI, 2025)

Tested on: HUVEC/MSC spheroids viability
Experiment: Human HUVEC/MSC cell line growth inhibition [KRAS2];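 on viability, T/C: percent of DMSO vehicle control luminescence so 100% = untreated viability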
Settings: for IC50: curve of first compound; for viability, T/C: stronger effect = lower value
Summary of the method: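 Concentration ranges start near each agent's clinical Cmax, or at 10 microM if none is established, and fall by half-log increments. These ranges are tested as single agents and combinations on endothelial/mesenchymal stem cell spheroids lacking tumour cells.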

[1] = second compound 0.0316 µM, first compound 0.0316 µM
[2] = second compound 0.0316 µM, first compound 0.1 µM
[3] = second compound 0.1 µM, first compound 0.0316 µM
[4] = second compound 0.1 µM, first compound 0.1 µM
[5] = second compound 0.316 µM, first compound 0.0316 µM
[6] = second compound 0.316 µM, first compound 0.1 µM
[7] = second compound 1 µM, first compound 0.0316 µM
[8] = second compound 1 µM, first compound 0.1 µM
[9] = second compound 3.16 µM, first compound 0.0316 µM
[10] = second compound 3.16 µM, first compound 0.1 µM
[11] = second compound 10 µM, first compound 0.0316 µM
[12] = second compound 10 µM, first compound 0.1 µM
[13] = second compound 0.0316 µM, first compound 0.316 µM
[14] = second compound 0.0316 µM, first compound 1 µM
[15] = second compound 0.0316 µM, first compound 3.16 µM
[16] = second compound 0.0316 µM, first compound 10 µM
[17] = second compound 0.1 µM, first compound 0.316 µM
[18] = second compound 0.1 µM, first compound 1 µM
[19] = second compound 0.1 µM, first compound 3.16 µM
[20] = second compound 0.1 µM, first compound 10 µM
[21] = second compound 0.316 µM, first compound 0.316 µM
[22] = second compound 0.316 µM, first compound 1 µM
[23] = second compound 0.316 µM, first compound 3.16 µM
[24] = second compound 0.316 µM, first compound 10 µM
[25] = second compound 1 µM, first compound 0.316 µM
[26] = second compound 1 µM, first compound 1 µM
[27] = second compound 1 µM, first compound 3.16 µM
[28] = second compound 1 µM, first compound 10 µM
[29] = second compound 3.16 µM, first compound 0.316 µM
[30] = second compound 3.16 µM, first compound 1 µM
[31] = second compound 3.16 µM, first compound 3.16 µM
[32] = second compound 3.16 µM, first compound 10 µM
[33] = second compound 10 µM, first compound 0.316 µM
[34] = second compound 10 µM, first compound 1 µM
[35] = second compound 10 µM, first compound 3.16 µM
[36] = second compound 10 µM, first compound 10 µM

With `CN(C)C/C=C/C(=O)Nc1cc2c(Nc3ccc(F)c(Cl)c3)ncnc2cc1O[C@H]1CCOC1` + CNCc1ccccc1-c1csc(C(C)Nc2nc(C)nc3cc(OC)c(OC)cc23)c1 the IC50 (second compound 0.0316 µM) was greater than 0.1 µM, the IC50 (second compound 0.1 µM) was greater than 0.1 µM and the IC50 (second compound 0.316 µM) was greater than 0.1 µM. For the same compound, the IC50 (second compound 1 µM) was greater than 0.1 µM, the IC50 (second compound 3.16 µM) was greater than 0.1 µM and the IC50 (second compound 10 µM) was less than 0.000316 µM. The viability, T/C (second compound 0.0316 µM, first compound 0.000316 µM) was 100%, the viability, T/C (second compound 0.0316 µM, first compound 0.001 µM) was 89.5% and the viability, T/C (second compound 0.0316 µM, first compound 0.00316 µM) was 90.5%. For the same compound, the viability, T/C (second compound 0.0316 µM, first compound 0.01 µM) was 91.2%, the viability, T/C [1] was 74% and the viability, T/C [2] was 86%. For the same compound, the viability, T/C (second compound 0.1 µM, first compound 0.000316 µM) was 89.7%, the viability, T/C (second compound 0.1 µM, first compound 0.001 µM) was 105% and the viability, T/C (second compound 0.1 µM, first compound 0.00316 µM) was 77.4%. The viability, T/C (second compound 0.1 µM, first compound 0.01 µM) was 76.7%, the viability, T/C [3] was 89.5% and the viability, T/C [4] was 74.8%. It also gave a viability, T/C (second compound 0.316 µM, first compound 0.000316 µM) of 85.2%, a viability, T/C (second compound 0.316 µM, first compound 0.001 µM) of 93.2% and a viability, T/C (second compound 0.316 µM, first compound 0.00316 µM) of 72.5%. It also gave a viability, T/C (second compound 0.316 µM, first compound 0.01 µM) of 78.1%, a viability, T/C [5] of 96.6% and a viability, T/C [6] of 68.8%. The viability, T/C (second compound 1 µM, first compound 0.000316 µM) was 78.3%, the viability, T/C (second compound 1 µM, first compound 0.001 µM) was 73.7% and the viability, T/C (second compound 1 µM, first compound 0.00316 µM) was 86.5%. For the same compound, the viability, T/C (second compound 1 µM, first compound 0.01 µM) was 73.5%, the viability, T/C [7] was 72.7% and the viability, T/C [8] was 59.8%. For the same compound, the viability, T/C (second compound 3.16 µM, first compound 0.000316 µM) was 89.2%, the viability, T/C (second compound 3.16 µM, first compound 0.001 µM) was 94.4% and the viability, T/C (second compound 3.16 µM, first compound 0.00316 µM) was 80.4%. It also gave a viability, T/C (second compound 3.16 µM, first compound 0.01 µM) of 89.5%, a viability, T/C [9] of 65.2% and a viability, T/C [10] of 84.4%. The viability, T/C (second compound 10 µM, first compound 0.000316 µM) was 0.33%, the viability, T/C (second compound 10 µM, first compound 0.001 µM) was 0.35% and the viability, T/C (second compound 10 µM, first compound 0.00316 µM) was 0.37%. It also gave a viability, T/C (second compound 10 µM, first compound 0.01 µM) of 0.33%, a viability, T/C [11] of 0.37% and a viability, T/C [12] of 0.65%.

Work on `CC1OCC2(CCN(c3cnc(Sc4ccnc(N)c4Cl)c(N)n3)CC2)C1N` (stereo unspecified) + CNCc1ccccc1-c1csc(C(C)Nc2nc(C)nc3cc(OC)c(OC)cc23)c1 yielded an IC50 (second compound 0.0316 µM) greater than 10 µM, an IC50 (second compound 0.1 µM) of 6.91 µM and an IC50 (second compound 0.316 µM) of 6.2 µM. For the same compound, the IC50 (second compound 1 µM) was 6.91 µM, the IC50 (second compound 3.16 µM) was 4.95 µM and the IC50 (second compound 10 µM) was less than 0.0316 µM. The viability, T/C [1] was 90.2%, the viability, T/C [2] was 104% and the viability, T/C [13] was 86.8%. For the same compound, the viability, T/C [14] was 80.1%, the viability, T/C [15] was 83.1% and the viability, T/C [16] was 51.9%. For the same compound, the viability, T/C [3] was 94.5%, the viability, T/C [4] was 108% and the viability, T/C [17] was 90.4%. For the same compound, the viability, T/C [18] was 74.2%, the viability, T/C [19] was 68% and the viability, T/C [20] was 42.5%. For the same compound, the viability, T/C [5] was 90.2%, the viability, T/C [6] was 81.9% and the viability, T/C [21] was 78.2%. It also gave a viability, T/C [22] of 69.9%, a viability, T/C [23] of 70.3% and a viability, T/C [24] of 38.5%. It also gave a viability, T/C [7] of 74.6%, a viability, T/C [8] of 104% and a viability, T/C [25] of 79.1%. It also gave a viability, T/C [26] of 67.4%, a viability, T/C [27] of 68.8% and a viability, T/C [28] of 42.5%. It also gave a viability, T/C [9] of 90.8%, a viability, T/C [10] of 98.7% and a viability, T/C [29] of 82%. For the same compound, the viability, T/C [30] was 89.2%, the viability, T/C [31] was 78.9% and the viability, T/C [32] was 4.77%. For the same compound, the viability, T/C [11] was 0.35%, the viability, T/C [12] was 0.39% and the viability, T/C [33] was 0.53%. The viability, T/C [34] was 0.42%, the viability, T/C [35] was 0.4% and the viability, T/C [36] was 0.25%.

Work on `CCNC(=O)CC1N=C(c2ccc(Cl)cc2)c2cc(OC)ccc2-n2c(C)nnc21` (stereo unspecified) + CNCc1ccccc1-c1csc(C(C)Nc2nc(C)nc3cc(OC)c(OC)cc23)c1 yielded an IC50 (second compound 0.0316 µM) greater than 10 µM, an IC50 (second compound 0.1 µM) greater than 10 µM and an IC50 (second compound 0.316 µM) greater than 10 µM. For the same compound, the IC50 (second compound 1 µM) was greater than 10 µM, the IC50 (second compound 3.16 µM) was greater than 10 µM and the IC50 (second compound 10 µM) was less than 0.0316 µM. For the same compound, the viability, T/C [1] was 89.8%, the viability, T/C [2] was 96.4% and the viability, T/C [13] was 88%. It also gave a viability, T/C [14] of 106%, a viability, T/C [15] of 114% and a viability, T/C [16] of 115%. The viability, T/C [3] was 96.8%, the viability, T/C [4] was 91.3% and the viability, T/C [17] was 109%. It also gave a viability, T/C [18] of 92.6%, a viability, T/C [19] of 120% and a viability, T/C [20] of 122%. The viability, T/C [5] was 75.2%, the viability, T/C [6] was 86.6% and the viability, T/C [21] was 91.3%. The viability, T/C [22] was 109%, the viability, T/C [23] was 94.1% and the viability, T/C [24] was 93.7%. It also gave a viability, T/C [7] of 69.5%, a viability, T/C [8] of 105% and a viability, T/C [25] of 98.5%. For the same compound, the viability, T/C [26] was 99.4%, the viability, T/C [27] was 127% and the viability, T/C [28] was 99.1%. The viability, T/C [9] was 86.8%, the viability, T/C [10] was 93.6% and the viability, T/C [29] was 117%. It also gave a viability, T/C [30] of 97.3%, a viability, T/C [31] of 108% and a viability, T/C [32] of 114%. The viability, T/C [11] was 0.39%, the viability, T/C [12] was 0.34% and the viability, T/C [33] was 0.4%. For the same compound, the viability, T/C [34] was 0.52%, the viability, T/C [35] was 0.39% and the viability, T/C [36] was 0.43%.
